The values below come from US5591773A, “Inhibition of cataract formation, diseases resulting from oxidative stress, and HIV replication by caffeic acid esters” (priority 1994, dated 1997).

“Also recorded” adds a separate entry of the source.

Data set [1] has as its system bovine lens (opacity). The settings on record: 1 μM TPA; cited from earlier work.
In data set [2] the test system is mouse skin. The note with it: cited from earlier work.
For data set [3], the system named is oxidative burst of human PMNs. As to the kind of experiment: H2O2 formation by TPA-stimulated human PMNs (phenol red/HRPO). Type of data set: cell-based. As for the experimental part: FIG. 4. CAPE-mediated inhibition of H2 O2 formation by TPA-stimulated human PMNs. Cells were incubated with CAPE (0.05-5 nmol/ml) and TPA (25 pmol/2.5×10^5 PMNs/ml) at 37° C. for 30 min, and H2 O2 was determined by the phenol red/HRPO assay, as described in the "Experimental Details" Section, infra. Note the semilog scale. The results are presented as mean values ±SE.
A) Human PMNS Blood was obtained from healthy volunteers and collected into EDTA-containing tubes. Red cells were removed by dextran sedimentation and lysis with hypotonic ammonium chloride, as described previously (5). Cells were washed in glucose-containing basic salt solution (137 mM NaCl, 5 mM KCl, 8.5 mM Na2 HPO4 -NaH2 PO4, 0.8 mM MgSO4, 5 mM glucose, pH 7.4) and suspended at a ratio of 10 ml of the initial blood volume/ml basic salt solution. Whole WBC population was used as a source of PMNs, with PMN numbers used per assay being adjusted according to the results of Wright's staining of the peripheral blood.
PMNs (2.5×10^5 /ml) were incubated with CAPE (0.05-5.0 nmol/ml) and/or TPA (25 pmol/ml) at 37° C. for 30 min in the presence of phenol red (100 μg) and HRPO (50 μg) (54). After the reaction was stopped with catalase (50 μg/ml), the pH was adjusted to 12.5 with NaOH, the mixture was centrifuged, and the absorbance of the supernatant was determined at 598 nm. […]

Data set [4] relates to ornithine decarboxylase (ODC). Briefly: TPA-induced ornithine decarboxylase (ODC) in CD-1 mice. Type of data set: in vivo. The note with it: CAPE 1 μmol, TPA 5 nmol, (76). As for the experimental part:
(§1) A) Treatment of Animals and Assays. Female SENCAR (6-8 weeks old) and CD-1 mice (about 7 weeks old) were purchased from Biological Testing, National Cancer Institute (Frederick, Md.) and from Charles River Laboratory (Stone Ridge, N.Y.), respectively. The mice were acclimated for at least 1 week before use. They were subjected to a 12-h light/12-h dark cycle, housed at 20°±2° C. in a room with 10 cycles of air exchanges/h, given food and water ad libitum, and observed for any indication of ill health. Before topical application of any test agents, their backs were shaved and only those without hair growth after 48 h were used.

The test system of data set [5] is ornithine decarboxylase (ODC). Briefly: TPA-induced ornithine decarboxylase (ODC) in SENCAR mice. In kind it is in vivo. The note with it: CAPE 10 μmol, TPA 4 nmol. The method, then: as §1
The test system of data set [6] is HRPO. Briefly: Degradation of H2O2 / inhibition of HRPO. In kind it is biochemical. The settings on record: unpublished results of Bhimani and Frenkel.
Data set [7] has as its system Fischer cloned rat embryo fibroblasts. The settings on record: cited from earlier work.
Data set [8] relates to HIV integrase. The note with it: cited from earlier work.
Data set [9] has as its system untransformed rat 6 cells. The note with it: cited from earlier work.
The subject of data set [10] is transformed cells. The note with it: cited from earlier work.

On to `CCCCCCCCCCCCCC(=O)O[C@@H]1[C@@H](C)[C@@]2(O)[C@@H](C=C(CO)C[C@]3(O)C(=O)C(C)=C[C@@H]23)[C@@H]2C(C)(C)[C@]12OC(C)=O` [TPA, 12-O-tetradecanoylphorbol-13-acetate], for which the “lens opacity (in words)” value in data set [1] is recorded as “even more pronounced; also recorded: causes its opacity”. For the same compound, in data set [2], the “H2O2 production and oxidation of DNA bases in vivo (in words)” value was “induce H2 O2 production in mouse skin as well as cause oxidation of DNA bases in vivo”.
For `O=C(/C=C/c1ccc(O)c(O)c1)OCCc1ccccc1` [CAPE, Caffeic acid phenethyl ester], the IC50 in data set [3] (0.5 h, human PMNs 2.5×10^5/ml, TPA 25 pmol/ml, 37° C., 30 min, read-out: 50% inhibition of oxidative burst of PMNs (H2O2 production)) came out at 0.5 µM. Besides, in data set [3] (CAPE 0.05-5.0 nmol/ml), the “inhibition of oxidative burst (in words)” value was “inhibited the oxidative burst of PMNs (as measured by H2 O2 production) in a dose-dependent manner”. In addition, the “inhibition of TPA-induced ODC” value stood at 55% in data set [4] and 62% in data set [5]. For the same compound, the “degradation of H2O2 or inhibition of HRPO (in words)” value in [6] is listed as “does not degrade H2 O2 or inhibit HRPO”. Further, the “inhibition of adenovirus type 5 E1A-mediated transformation; cytotoxicity (in words)” value in data set [7] is recorded as “inhibit the transformation mediated by adenovirus type 5 E1A; also recorded: more cytotoxic to transformed Fischer cloned rat embryo fibroblasts than to wild type cells”. Besides, the “HIV integrase inhibition (in words)” value in [8] is “inhibits HIV integrase”. For the same compound, the “growth inhibition, untransformed rat 6 cells (in words)” value in data set [9] is recorded as “but not that of the untransformed rat 6 cells”. Moreover, the “selective toxicity (in words)” value in data set [10] is “selectively toxic to transformed cells but not to normal cells”.
